Results from article PMC10590056, “Design and synthesis of cabotegravir derivatives bearing 1,2,3-triazole and evaluation of anti-liver cancer activity” (Frontiers in Pharmacology, 2023).
Where “and” joins values, the source holds several entries; their conditions need not be identical. Identical values can stand only once. Like-named read-outs stand apart in the source and are kept apart here.

What was measured:
Assay type in all cases: cell-based
HepG2 cells [1] = assay: Transwell invasion assay (Matrigel); settings: HepG2, 24 h treatment, vs control
Experimental: HepG2 cells were treated with either KJ-5 or KJ-12 for 24 h. Then, the cells were suspended and seeded into the upper chamber of a 24-well Transwell plate (Corning Inc., United States) in serum-free medium. The cells were cultured for 24 h at 37°C; a medium containing 20% FBS as a chemoattractant was added to the lower chamber. HepG2 cells that had invaded through the membrane were fixed with 4% paraformaldehyde for 20 min and stained with 0.1% crystal violet. Five random fields were then imaged and quantified using an inverted fluorescence microscope (Axio Observer3, Germany). To assess invasion, transwell assays were performed in a similar manner, with the exception of coating the upper chamber of the Transwell with 100 μL of diluted Matrigel solution per well.

HepG2 cells [2] = assay: Annexin V-FITC/PI staining for cell apoptosis (flow cytometry); settings: 24 h; for Proportion of apoptotic cells: Annexin-V/PI
Experimental: HepG2 cells were plated in a 6-well plate at a density of 5 × 10^6 cells/well and incubated for 24 h. Then, the original culture medium was replaced with 2 mL DMEM containing KJ-5 or KJ-12 (2, 4, and 8 μM) and incubated for 24 h. After incubation with KJ-5 or KJ-12, the cells were washed with cold PBS and then resuspended in 100 µL binding buffer at a concentration of 1 × 10^6 cells/mL. Then, 5 μl of FITC Annexin V and 5 µl of PI were added to the solution. The cells were gently vortexed and incubated for 15 min at room temperature (25°C) in the dark. Subsequently, 400 µL binding buffer was added to each tube, and the samples were analyzed by flow cytometry (BD Accuri™ C6 Plus) within 1 h.

MCF-7 cells = assay: MTT assay for cell proliferation, MCF-7; design: key to Inhibitory rate / Inhibition rate: inhibition rate = 1 - mean A490 sample/mean A490 control (fraction)
Experimental: (§1) HepG2, HeLa, MCF-7, and KYSE-30 cells were grown in a humidified incubator at 37°C with 5% CO2 in DMEM supplemented with 10% fetal bovine serum (FBS), […] streptomycin, and 100 U/mL penicillin.
(§2) When HepG2 cells reached 80% confluence, they were treated with 1 mL of trypsin and resuspended at a density of 10^5 cells/mL. Then, 100 μL of cell suspension was seeded into each well of a 96-well plate and incubated in a humidified atmosphere. The different concentrations of KJ-5 and KJ-12 (0, 1, 2, 4, 8, 16, and 32 μM) were added to each well, and the cells were further incubated for 48 h. Afterward, 20 μL of the MTT solution (5 mg/mL) was added to each well, and incubation was continued for another 4 h. The supernatant was discarded, and 200 μL of the DMSO solution was added to each well. The plate was shaken for 10 min in the dark. The absorbance values were measured at 490 nm using an enzyme-linked detector. The cell inhibition rate (%) was calculated using the following formula: (1-Mean A490 sample/Mean A490 control) × 100%.

HeLa cells = assay: MTT assay for cell proliferation, HeLa; design: key to Inhibitory rate: inhibition rate = 1 - mean A490 sample/mean A490 control (fraction)
Experimental: as §1, §2

p-H2AX in HepG2 cells = assay: H2AX phosphorylation by immunofluorescence and Western blotting; settings: HepG2, 24 h
Experimental: HepG2 cells were plated in laser confocal dishes (Nest, China), followed by the addition of KJ-5 or KJ-12 for 24 h. Then, 4% paraformaldehyde was added to each laser confocal dish for 20 min after rinsing with PBS. Before the goat serum was added to block for 1 h, 0.5% Triton X-100 was used to penetrate HepG2 for 30 min. Subsequently, the cells were incubated with p-H2AX (Cell Signaling Technology, MA, United States) at a 1:800 dilution at 4°C overnight. The cells were rinsed with PBS and incubated with Alexa Fluor 488 (Proteintech, Wuhan, China) at a 1:1000 dilution in dark at room temperature for 1 h. DAPI was used to stain the cell nucleus for 5 min. Then, the cells were rinsed with PBS before observing the cells under a laser confocal microscope (Nikon, Tokyo, Japan).
After being pretreated with either KJ-5 or KJ-12 at concentrations of 2, 4, or 8 μM for 24 h, the cells were harvested and lysed using an ice-cold cell lysis buffer from Beyotime Biotechnology (Shanghai, China). The proteins were mixed with a loading buffer and denatured by heating at 95°C–100°C for 5–10 min. Equal amounts of protein were loaded onto a 10% SDS-PAGE gel along with a molecular weight marker and separated by electrophoresis for 2 h. The separated proteins were transferred onto a PVDF membrane, which was blocked with 5% non-fat milk for non-specific binding sites on the membrane. […]

[3] = MCF-7, fraction, per experiment

In the case of `COc1c2n(cc(C(=O)Nc3cccc(-c4cn(-c5cc(C(F)(F)F)cc(C(F)(F)F)c5)nn4)c3)c1=O)C[C@H]1OC[C@H](C)N1C2=O` [KJ-5], the “Invasion of HepG2 cells (transwell with Matrigel)” value (HepG2 cells [1]) is reported as “significantly impaired”, the “Proportion of apoptotic cells” value (HepG2 cells [2]; HepG2, 2 μM) is reported as 21.8 ± 1.3% and the “Proportion of apoptotic cells” value (HepG2 cells [2]; HepG2, 4 μM) is reported as 30.9 ± 1.4%. For the same compound, the “Proportion of apoptotic cells” value (HepG2 cells [2]; HepG2, 8 μM) was 52.7 ± 1.7%, the “Cell apoptosis (in words)” value (HepG2 cells [2]; HepG2, 2, 4, 8 μM) was “significantly caused cell apoptosis in a concentration-dependent manner” and the IC50 (MCF-7 cells; Homo sapiens, MCF7, 48 h, MCF-7, 48 h, MTT, read-out: IC50 MCF-7) was 8.41 ± 0.14 µM. For the same compound, the IC50 (MCF-7 cells; Homo sapiens, MCF7, MCF-7, one of three experiments, unit inferred, read-out: IC50, single experiment, MCF-7) was 8.56 µM, the inhibition at 16 µM (MCF-7 cells; Homo sapiens, MCF7, preliminary screening, MCF-7, 16 μM, 48 h, mean±SD, unit inferred, read-out: Inhibition rate (16μM), 48 h, MCF-7) was 62.6 ± 1.76% and the Inhibitory rate (MCF-7 cells; MCF-7, group 1 (concentration), fraction, single experiments) was 0.147 and 0.1313 and 0.1401. For the same compound, the ODtreated/ODcontrol (MCF-7 cells; MCF-7, group 1 (concentration), single experiments) was 0.853 and 0.8687 and 0.8599, the Inhibitory rate (MCF-7 cells; MCF-7, group 2 (concentration), fraction, single experiments) was 0.1769 and 0.1986 and 0.2186 and the ODtreated/ODcontrol (MCF-7 cells; MCF-7, group 2 (concentration), single experiments) was 0.8231 and 0.8014 and 0.7814. For the same compound, the Inhibitory rate (MCF-7 cells; MCF-7, group 4 (concentration), fraction, single experiments) was 0.4303 and 0.4175 and 0.4002, the ODtreated/ODcontrol (MCF-7 cells; MCF-7, group 4 (concentration), single experiments) was 0.5697 and 0.5825 and 0.5998 and the Inhibitory rate (MCF-7 cells; MCF-7, group 8 (concentration), fraction, single experiments) was 0.509 and 0.5265 and 0.5019. For the same compound, the ODtreated/ODcontrol (MCF-7 cells; MCF-7, group 8 (concentration), single experiments) was 0.491 and 0.4735 and 0.4981, the Inhibitory rate (MCF-7 cells; MCF-7, group 16 (concentration), fraction, single experiments) was 0.5958 and 0.5893 and 0.6098 and the ODtreated/ODcontrol (MCF-7 cells; MCF-7, group 16 (concentration), single experiments) was 0.4042 and 0.4107 and 0.3902. For the same compound, the Inhibitory rate (MCF-7 cells; MCF-7, group 32 (concentration), fraction, single experiments) was 0.7196 and 0.7385 and 0.7334, the ODtreated/ODcontrol (MCF-7 cells; MCF-7, group 32 (concentration), single experiments) was 0.2804 and 0.2615 and 0.2666 and the IC50 (MCF-7 cells; MCF-7, one of three experiments, unit inferred, read-out: IC50, single experiment, MCF-7) was 8.29 µM and 8.37 µM. The Inhibitory rate (MCF-7 cells; [3]) was 0.6368, the ODtreated/ODcontrol (MCF-7 cells; [3]) was 0.3632 and the Inhibitory rate (MCF-7 cells; given as fraction, second of three experiments) was 0.6364. The Inhibition rate (MCF-7 cells; given as fraction, third of three experiments) was 0.6061, the ODtreated/ODcontrol (MCF-7 cells; second of three experiments) was 0.3635 and the ODtreated/ODcontrol (MCF-7 cells; third of three experiments) was 0.3939. The Inhibitory rate (HeLa cells; Hela, group 1 (concentration), fraction, single experiments) was 0.2915 and 0.2462 and 0.2143, the ODtreated/ODcontrol (HeLa cells; Hela, group 1 (concentration), single experiments) was 0.7085 and 0.7538 and 0.7857 and the Inhibitory rate (HeLa cells; Hela, group 2 (concentration), fraction, single experiments) was 0.3879 and 0.3569 and 0.2882. The ODtreated/ODcontrol (HeLa cells; Hela, group 2 (concentration), single experiments) was 0.6121 and 0.6431 and 0.7118, the Inhibitory rate (HeLa cells; Hela, group 4 (concentration), fraction, single experiments) was 0.418 and 0.3669 and 0.3302 and the ODtreated/ODcontrol (HeLa cells; Hela, group 4 (concentration), single experiments) was 0.582 and 0.6331 and 0.6698. For the same compound, the Inhibitory rate (HeLa cells; Hela, group 8 (concentration), fraction, single experiments) was 0.5915 and 0.5007 and 0.5011, the ODtreated/ODcontrol (HeLa cells; Hela, group 8 (concentration), single experiments) was 0.4085 and 0.4993 and 0.4989 and the Inhibitory rate (HeLa cells; Hela, group 16 (concentration), fraction, single experiments) was 0.834 and 0.8197 and 0.8242. For the same compound, the ODtreated/ODcontrol (HeLa cells; Hela, group 16 (concentration), single experiments) was 0.166 and 0.1803 and 0.1758, the Inhibitory rate (HeLa cells; Hela, group 32 (concentration), fraction, single experiments) was 0.8525 and 0.86 and 0.8737 and the ODtreated/ODcontrol (HeLa cells; Hela, group 32 (concentration), single experiments) was 0.1475 and 0.14 and 0.1263. For the same compound, the IC50 (HeLa cells; Hela, one of three experiments, unit inferred, read-out: IC50, single experiment, Hela) was 5.87 µM, the Inhibitory rate (HeLa cells; Hela, fraction, per experiment) was 0.8059 and 0.7883 and 0.7664 and the ODtreated/ODcontrol (HeLa cells; Hela, fraction, per experiment) was 0.1941 and 0.2117 and 0.2336. It also gave an IC50 (HeLa cells; Homo sapiens, HeLa, 48 h, HeLa, 48 h, MTT, read-out: IC50 HeLa) of 5.02 ± 0.94 µM, an IC50 (HeLa cells; Homo sapiens, HeLa, one of three experiments, unit inferred, read-out: IC50, single experiment, Hela) of 5.16 µM and an inhibition at 16 µM (HeLa cells; Homo sapiens, preliminary screening, Hela, 16 μM, 48 h, mean±SD, unit inferred, read-out: Inhibition rate (16μM), 48 h, Hela) of 79.4 ± 1.04%. For the same compound, the “Expression of p-H2AX (DNA damage marker)” value (p-H2AX in HepG2 cells) was “increased the expression of p-H2AX”.
